The values below come from patent publication US20240208984A1, “BIVALENT LIGANDS TO UNDERSTAND DIMERIZATION OF THE MU OPIOID RECEPTOR AND THE CHEMOKINE RECEPTOR CCR5 IN NEUROLOGICAL DISORDERS” (priority 2021, published 2024).

The subject of data set [1] is GHOST CCR5 cells. To be noted: GHOST CCR5 cells; XTT; triplicate. For orientation: Tetrazolium dyes change colour on reduction, which living cells bring about.
Method: These compounds were concurrently assessed for cytotoxicity in GHOST-CCR5-expressing cells using the XTT assay. […] The therapeutic index (TI, TC50/EC50) values were calculated if applicable.
(§1) 100 μL of GHOST CCR5 cells at a density of 1×10^4 cells/well in 10% complete DMEM (10% FBS with 1% L-glutamine and 1% Penicillin/Streptomycin) media were plated in a 96-well flat bottom plate and incubated for 24 h at 37° C./5% CO2. Following the incubation, 100 μL of each compound at 6 concentrations were added in triplicate to both efficacy and toxicity plates followed by 100 μL of HIV-1BaL at a pre-determined titer to the plates being evaluated for efficacy and 50 μL of complete DMEM to the plates being evaluated for cytotoxicity. The cultures were incubated for 6 days at 37° C./5% CO2. Following the incubation, 50 μL of cell culture supernatant was removed from the wells of the efficacy plates for subsequent evaluation of virus content by reverse transcriptase activity assay. The toxicity plates being evaluated for cytotoxicity were stained with XTT.
TC50 values for the tested compounds were derived by measuring the reduction of the tetrazolium dye XTT (2,3-bis(2-methoxy-4-nitro-5-sulfophenyl)-5-[(phenylamino)carbonyl]-2H-tetrazolium hydroxide). XTT in metabolically active cells is metabolized by the mitochondrial enzyme NADPH oxidase to a soluble formazan product. XTT solution was prepared as a stock of 1 mg/mL in RPMI-1640 without additives. Phenazine methosulfate (PMS) solution was prepared at 0.15 mg/mL in DPBS and stored in the dark at −20° C. XTT/PMS stock was prepared immediately before use by adding 40 μL of PMS per mL of XTT solution. 50 μL of XTT/PMS was added to each well of the plate and the plate was incubated for 4 h at 37° C. The plates were sealed and inverted several times to mix the soluble formazan product and the plate was read at 450 nm (650 nm reference wavelength) with a Molecular Devices SPECTRAMAX® Plus 384 96 well format spectrophotometer.
Data set [2] relates to HIV-1BaL. Kind of data set: Anti-HIV-1BaL activity (reverse transcriptase activity) in GHOST CCR5 cells. The settings on record: for EC50: read-out: Inhibition of HIV-1BaL EC50, RT activity, triplicate.
Method: This assay was run in GHOST-CCR5 cells using the CCR5-tropic viral strain HIV-1BaL.
as §1
RT activity (EC50 values) was measured using standard radioactivity incorporation polymerization assay. 1 μL of titrated thymidine triphosphate (TTP) at 1 Ci/mL was used per enzyme reaction. Poly rA and oligo dT were prepared at concentrations of 0.5 mg/mL and 1.7 Units/mL, respectively, from a stock solution which was kept at −20° C. The RT reaction buffer was prepared fresh and consists of 125 μL of 1M EGTA, 125 μL of dH2O, 125 μL of 20% Triton X-100, 50 μL of 1M Tris (pH 7.4), 50 μL of 1M DTT, and 40 μL of 1 M MgCl2. For each reaction, 1 μL of TTP, 4 μL of dH2O, 2.5 μL of rAdT and 2.5 μL of reaction buffer were mixed. 10 μL of this reaction mixture was placed in a round bottom microtiter plate with 15 μL of virus containing supernatant. The plate was incubated at 37° C. in a humidified incubator for 60-90 min. […] The dried filtermat was placed in a plastic sleeve and 4 mL of Opti-Fluor O (Perkin Elmer, catalog #1205-440) scintillation fluid was added to each sleeve. […] TC50 values for the tested compounds were derived by measuring the reduction of the tetrazolium dye XTT (2,3-bis(2-methoxy-4-nitro-5-sulfophenyl)-5-[(phenylamino)carbonyl]-2H-tetrazolium hydroxide). XTT in metabolically active cells is metabolized by the mitochondrial enzyme NADPH oxidase to a soluble formazan product. XTT solution was prepared as a stock of 1 mg/mL in RPMI-1640 without additives. Phenazine methosulfate (PMS) solution was prepared at 0.15 mg/mL in DPBS and stored in the dark at −20° C. XTT/PMS stock was prepared immediately before use by adding 40 μL of PMS per mL of XTT solution. […] The plates were sealed and inverted several times to mix the soluble formazan product and the plate was read at 450 nm (650 nm reference wavelength) with a Molecular Devices SPECTRAMAX® Plus 384 96 well format spectrophotometer.
The target of data set [3] is T1, mouse MOR (Mus musculus (Mouse), UniProt P42866). To be noted: [35S]GTPγS binding; data reported before, shown for comparison; cited from earlier work.
Data set [4] has as its target T2, mouse mu opioid receptor (Mus musculus (Mouse), UniProt P42866). To be noted: read-out: Inhibition of DAMGO Induced Ca2+ Mobilization IC50; data reported before, shown for comparison; cited from earlier work. For orientation: A change in cytosolic calcium serves as a functional read-out for many receptors and channels.
Data set [5] has as its target T3, Rhesus macaque chemokine CCR5 receptors (Macaca mulatta (Rhesus macaque), UniProt P61813). To be noted: data reported before; similar assay with minor differences; read-out: CCR5 Radioligand Binding Affinity Ki; cited from earlier work.
The target of data set [6] is T4, CCR5 (Homo sapiens (Human), UniProt P51681). The settings on record: data reported before, shown for comparison; read-out: Inhibition of CCL5-stimulated Intracellular Ca2+ Mobilization IC50; cited from earlier work.
Data set [7] deals with T4, CCR5. Kind of data set: Calcium mobilization assay in HOS-CCR5 cells. It counts as cell-based. As to the method: We then conducted the calcium mobilization assay to further test both the agonist and antagonist properties of the newly synthesized compounds in the HOS-CCR5 (stably transfected for the expression of CCR5) cells using our reported protocol, as calcium mobilization is associated with the activation of CCR5. Prior to the assay, the HOS-CCR5 cells were transiently transfected with a Gqi5 to boost calcium signaling levels.
In the antagonism assay, these compounds were assessed for their ability to inhibit CCL5-stimulated Ca^2+ mobilization.
HOS-CCR5 cells were transfected with Gqi5 pcDNA16 using Lipofectamine 2000 (Invitrogen) according to the manufacturer's recommended procedure and maintained in RPMI 1640 supplemented with 10% fetal bovine serum, 100 μg/mL penicillin, 100 μg/mL streptomycin, and 1 mg/mL G418 at 37° C. and 5% C02. 48 h after transfection, a total of 2,500,000 cells were spun down and brought back up in 8 mL of 50:1 HBSS: HEPES assay buffer. Cells were then plated at 25,000 cells per well into a clear bottom, black 96-well plate (Greiner Bio-one) and 50 μL of Fluo4 loading buffer [40 μL of 2 μM Fluo4-AM (Invitrogen), 100 μL of 2.5 mM probenecid, in 5 mL of assay buffer] was added to bring the volume up to 130 μL. After incubating for 45 min, 50 μL of varying concentrations of tested compounds were added and the plate was incubated for an additional 15 min. Plates were then read on a FlexStation3 microplate reader (Molecular Devices) at 494/516 ex/em for a total of 120 s. After 16 s of reading, 20 μL of 200 nM CCL5 (Biosource) in assay buffer, or assay buffer alone, was added to the wells to bring the total volume up to 200 μL. The changes in calcium mobilization were monitored and peak height values were obtained using SoftMaxPro software (Molecular Devices). Non-linear regression curves and IC50 values were generated using GraphPad Prism 8.0.1 (GraphPad Software, San Diego, CA). All experiments were repeated at least three times.

For data set [8], the target named is T2, mouse mu opioid receptor. Kind of data set: Calcium mobilization assay in mMOR-CHO cells. Type of data set: cell-based. As to the method:
Calcium mobilization assay results in mMOR-CHO cells. The pharmacological profiles of the three newly prepared MOR bivalent ligands were further characterized for their effects on MOR-dependent intracellular Ca^2+ signaling in an mMOR-CHO cell line that was transfected with chimeric Gqi5 protein as previously described.
A CHO cell line stably expressing the mouse mu opioid receptor (mMOR-CHO) was used for this assay. The cells were transfected with Gαqi5 for 4 h and then plated (10,000 cells/well) to black 96-well plates with clear bottoms (Greiner Bio-One). After 24 h of incubation, the culture medium was removed, and the cells were washed with assay buffer (50 mL of HBSS, 1 mL of HEPES, 250 μL of probenecid, 50 μL of 1 mM CaCl2, and 50 μL of 1 mM MgCl2). The tested compounds were dissolved in DMSO as a stock solution for the assay (1 M). For agonist assays, cells were then incubated with 50 μL/well loading buffer (6 mL of assay buffer, 24 μL of Fluo4-AM solution (Invitrogen), and 12 μL of probenecid solution) for 60 min. Following incubation, different concentrations of the tested compounds were added by a FlexStation3 microplate reader (Molecular Devices) and read at ex494/em516. Each concentration was run in triplicate. For antagonism studies, the cells were incubated with the same loading buffer as the agonist assay for 60 min. Then, different concentrations of the tested compounds (20 μL/well) were manually added to each well followed by another 15 min of incubation. […] Each concentration was run in triplicate. The corresponding IC50 value of each compound was calculated by non-linear regression using GraphPad Prism 8.0.1 (GraphPad Software, San Diego, CA).

The target in data set [9] is T1, mouse MOR. Kind of data set: In vitro MOR radioligand binding assay. The settings on record: [3H]naloxone radioligand; mMOR-CHO; mean ± SEM; read-out: MOR Radioligand Binding Affinity Ki.
Method: In vitro MOR radioligand binding studies. All bivalent ligands were first tested for their binding affinity to the MOR. The competitive radioligand binding assay was conducted using monoclonal mouse MOR expressed in CHO cell lines (mMOR-CHO).
In vitro MOR radioligand binding assay The competition binding assay was conducted using monoclonal mouse MOR expressed in Chinese hamster ovary (CHO) cell lines. In this assay, 30 μg of membrane protein was incubated with the radioligand [^3H] naloxone in the presence of different concentrations of tested compounds in TME buffer (50 mM Tris, 3 mM MgCl2, and 0.2 mM EGTA, pH 7.4) for 1.5 h at 30° C. The bound radioligand was separated by filtration using a Brandel harvester. […] The IC50 values were determined and converted to Ki values using the Cheng-Prusoff equation: Ki=IC50/[1+([L*]/KD)], where [L*] is the concentration of the radioligand and KD is the KD of the radioligand was determined.73
The target of data set [10] is T3, Rhesus macaque chemokine CCR5 receptors. Kind of data set: In vitro CCR5 radioligand binding assay. The settings on record: [125I]MIP-1α radioligand; Chem-1 cells; Cheng-Prusoff; mean ± SEM; read-out: CCR5 Radioligand Binding Affinity Ki. The protocol:
In vitro CCR5 radioligand binding studies. To verify the binding affinity of the bivalent ligands to the CCR5, the competitive radioligand binding assay was conducted in recombinant rhesus macaque CCR5-expressing Chem-1 cells, and macrophage inflammatory protein 1 beta (MIP-1β) was used as a control.
The CCR5 competitive radioligand binding assay was conducted following previously reported studies.74, 75 Rhesus macaque chemokine CCR5 receptors expressed in Chem-1 cells are assayed in modified HEPES buffer (50 mM HEPES, 1 mM CaCl2, 5 mM MgCl2, 0.2% BSA, pH 7.4). 3 μg of membrane protein was incubated with 0.10 nM [^125I]MIP-1α in the presence of six concentrations of tested compounds (10 μM, 1 μM, 0.1 μM, 10 nM, 1 nM, and 0.1 nM) for 90 min at 25° C. Non-specific binding is estimated in the presence of 0.1 μM MIP-1β.

For data set [11], the target named is T1, mouse MOR. Kind of data set: [35S]GTPγS functional assay in mMOR-CHO. It counts as biochemical. To be noted: [35S]GTPγS binding, mean ± SEM. As to the method:
After incubation, the bound radioactive ligand was separated from the free radioligand by filtration through a GF/B glass fiber filter paper and rinsed three times with ice-cold wash buffer (50 mM Tris-HCl, pH 7.2) using the Brandel harvester.
In general terms: Binding of GTPγS marks nucleotide exchange on a G protein.

For data set [12], the system named is HIV-1BaL Env-pseudotyped Luc-expressing virus. Kind of data set: HIV-1 infection assay in PHA-stimulated PBMC cells. The settings on record: PHA-stimulated PBMCs; 10 nM. Type of data set: cell-based. As to the method: Peripheral blood mononuclear cells (PBMCs) include large numbers of CCR5-expressing leukocytes and are susceptible to infection by R5-tropic HIV-1 strains.
In a 24-well plate, PHA-stimulated PBMC cells from healthy donors were infected by incubation with the HIV-1BaL.01 env-pseudotyped Luc virus. A concentration of HIV-1 p24 50 pg/106 cells was used, and uninfected cells served as a negative control. […] After approximately 18-20 h, the supernatant was removed and stored at −80° C., cells were rinsed twice with PBS and lysed. The lysate was subsequently tested for the relative Tat protein expression by using a luciferase assay system (Promega). Luciferase activity was measured using a PHERASTAR® FS plate reader (BMG Labtech).

Where two headings read alike, the source gives them in different places. Marks after values point to notes of the source that are not given here.

T1 sequence (P42866 whole entry, looked up): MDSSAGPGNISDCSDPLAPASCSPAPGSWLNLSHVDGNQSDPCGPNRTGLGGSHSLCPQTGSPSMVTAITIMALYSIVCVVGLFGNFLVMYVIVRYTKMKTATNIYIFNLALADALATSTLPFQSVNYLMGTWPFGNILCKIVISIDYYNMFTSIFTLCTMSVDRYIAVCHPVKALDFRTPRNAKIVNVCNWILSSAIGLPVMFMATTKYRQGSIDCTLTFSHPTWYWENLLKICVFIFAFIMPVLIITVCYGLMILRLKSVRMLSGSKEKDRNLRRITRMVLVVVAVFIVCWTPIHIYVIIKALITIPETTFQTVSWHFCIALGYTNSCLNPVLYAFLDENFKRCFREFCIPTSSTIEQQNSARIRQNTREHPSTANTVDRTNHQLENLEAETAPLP
T4 sequence (P51681 whole entry): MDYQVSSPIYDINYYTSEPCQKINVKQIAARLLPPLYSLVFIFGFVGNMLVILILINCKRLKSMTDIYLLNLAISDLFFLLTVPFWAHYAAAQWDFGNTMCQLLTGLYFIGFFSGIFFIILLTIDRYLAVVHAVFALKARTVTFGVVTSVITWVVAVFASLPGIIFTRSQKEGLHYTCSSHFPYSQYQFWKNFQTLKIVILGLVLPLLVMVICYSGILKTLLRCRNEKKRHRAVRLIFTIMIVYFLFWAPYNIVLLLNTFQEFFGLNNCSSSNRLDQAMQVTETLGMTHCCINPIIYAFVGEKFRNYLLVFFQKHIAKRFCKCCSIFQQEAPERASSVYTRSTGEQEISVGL
T2 sequence (P42866 whole entry, looked up): as the sequence (P42866 whole entry, looked up) above

By EC50 is commonly meant the concentration that produces a half-maximal response. With `Cc1nnc(C(C)C)n1C1C[C@H]2CC[C@@H](C1)N2CC[C@H](NC(=O)C1CCC(F)(F)CC1)c1ccccc1` (stereo in doubt) [Maraviroc], the “Cytotoxicity TC50” value in data set [1] is greater than 0.5 µM. In data set [2], the “TI (TC50/EC50)” value is reported as greater than 28 and the concentration for a half-maximal effect (EC50) came out at 18 ± 2 nM.

As usually defined, the IC50 is the midpoint of a concentration-inhibition curve. One may read the Ki as the dissociation constant of the complex between target and ligand, obtained from inhibition or displacement. Consider `Cc1nnc(C(C)C)n1C1CC2CCC(C1)N2CC[C@H](NC(=O)C1CCC(F)(F)CC1)c1ccc(NC(=O)COCC(=O)NCCCCCCCNC(=O)COCC(=O)N[C@@H]2CC[C@@]3(O)[C@H]4Cc5ccc(O)c6c5[C@@]3(CCN4CC3CC3)[C@H]2O6)cc1` (stereo partly drawn) [VZMC001], for which, in data set [1], the “Cytotoxicity TC50” value is greater than 100 µM. Moreover, the concentration for a half-maximal effect (EC50) in data set [2] was greater than 100000 nM. Besides, in data set [3], the “% Emax of DAMGO” value is given as 11.7 ± 1.2^b %. Also, the IC50 was 40 nM in data set [4] and 126 nM in data set [6]. The Ki in [5] was 239 ± 56 nM.

For the molecule “CCL5: C—C motif chemokine ligand 5, control CCR5 agonist”, the EC50 in [7] (agonist mode, HOS-CCR5 transfected with Gqi5, read-out: CCR5 Ca2+ mobilization agonism EC50) stood at 155 ± 6.58 nM.

`CC(C)c1nnc(CCNC(=O)COCC(=O)NCCCCCCCCCNC(=O)COCC(=O)NC2CC[C@@]3(O)[C@H]4Cc5ccc(O)c6c5[C@@]3(CCN4CC3CC3)[C@H]2O6)n1C1CC2CCC(C1)N2CC[C@H](NC(=O)C1CCC(F)(F)CC1)c1ccccc1` (stereo partly drawn) [VZMC017]: the results for the IC50 in data set [8] and in data set [7] were 74.4 nM and 965 ± 30.5 nM, respectively. Also, the results for the inhibition constant Ki in data set [9] and in [10] were 11.2 nM and 5.7 ± 0.23 nM, respectively. For the same molecule, the “% Emax of DAMGO” value in [11] was 4.27 ± 0.66^a %.

`C[C@@H](NC(=O)[C@@H](N)Cc1ccc(O)cc1)C(=O)NCC(=O)N(C)[C@@H](Cc1ccccc1)C(=O)NCCO` [DAMGO, [D-Ala2-MePhe4-Gly(ol)5]enkephalin, reference compound]: in data set [12], the “effect of opioid exposure on HIV expression” value is given as “remarkable increases in HIV expression”.

For `CNC(=O)COCC(=O)NCCCNC(=O)COCC(=O)N[C@@H]1CC[C@@]2(O)[C@H]3Cc4ccc(O)c5c4[C@@]2(CCN3CC2CC2)[C@H]1O5` [VZMC002], in data set [1], the “Cytotoxicity TC50” value is greater than 100 µM.

B1: MIP-1β: macrophage inflammatory protein 1 beta, used as a control (protein, UniProt P13236 24-92, looked up)
C-C motif chemokine 4: APMGSDPPTACCFSYTARKLPRNFVVDYYETSSLCSQPAVVFQTKRSKQVCADPSESWVQEYVYDLELN
B1: in data set [10], the Ki was 0.056 ± 0.006 nM.
